# Test results taken from PubChem BioAssay (NCI).
#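 These data come from cells grown in 96-well plates and exposed to compound for 48 hours at five concentrations. At the GI50, growth is halved. TGI marks complete inhibition of growth.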
# Experiments:
# Assay in all cases: DTP human tumour cell line panel, 48 h
# [1] = tested on: DU-145 prostate
# [2] = tested on: HCT-116 colon
# [3] = tested on: PC-3 prostate
# [4] = tested on: MDA-MB-231 breast
# [5] = tested on: IGROV1 ovarian
# [6] = tested on: 786-0 renal
# [7] = tested on: SF-268 CNS
# [8] = tested on: CCRF-CEM leukemia
# [9] = tested on: A498 renal
# [10] = tested on: MALME-3M melanoma
# [11] = tested on: SW-620 colon
# [12] = tested on: NCI/ADR-RES ovarian
# [13] = tested on: LOX IMVI melanoma
# [14] = tested on: SF-295 CNS
# [15] = tested on: SNB-19 CNS
# [16] = tested on: RXF 393 renal
# [17] = tested on: BT-549 breast
# [18] = tested on: T-47D breast
# [19] = tested on: NCI-H23 lung
# [20] = tested on: HOP-62 NSCLC
# [21] = tested on: HCT-15 colon
# [22] = tested on: K-562 leukemia
# [23] = tested on: U251 CNS
# [24] = tested on: OVCAR-4 ovarian
# [25] = tested on: TK-10 renal
# [26] = tested on: OVCAR-5 ovarian
# [27] = tested on: UACC-257 melanoma
# [28] = tested on: NCI-H522 lung
# [29] = tested on: HL-60(TB) leukemia
# [30] = tested on: ACHN renal
# [31] = tested on: OVCAR-3 ovarian
# [32] = tested on: KM12 colon
# [33] = tested on: SR leukemia
# [34] = tested on: NCI-H460 lung
# [35] = tested on: UACC-62 melanoma
# [36] = tested on: MCF7 breast
# [37] = tested on: SK-OV-3 ovarian
# [38] = tested on: HOP-92 NSCLC
# [39] = tested on: SNB-75 CNS
# [40] = tested on: SK-MEL-28 melanoma
# [41] = tested on: OVCAR-8 ovarian
# [42] = tested on: SN12C renal
# [43] = tested on: SF-539 CNS
# [44] = tested on: MOLT-4 leukemia
# [45] = tested on: A549 NSCLC
# [46] = tested on: HCC-2998 colon
# [47] = tested on: UO-31 renal
# [48] = tested on: SK-MEL-2 melanoma
# [49] = tested on: MDA-MB-435
# [50] = tested on: CAKI-1 renal
# [51] = tested on: NCI-H226 lung
# [52] = tested on: M14 melanoma
# [53] = tested on: EKVX NSCLC
# [54] = tested on: HT29 colon
# [55] = tested on: COLO 205 colon
# [56] = tested on: SK-MEL-5 melanoma
compound,measurement,setting,value
CCOC(=O)c1c(NC(=O)c2cccc(C(F)(F)F)c2)sc2c1CCC(=O)C2,GI50,[1],> 100 µM
same,TGI,[1],> 100 µM
same,GI50,[2],0.49 µM
same,TGI,[2],> 100 µM
same,GI50,[3],1.31 µM
same,TGI,[3],> 100 µM
same,GI50,[4],3.5 µM
same,TGI,[4],> 100 µM
same,GI50,[5],2.4 µM
same,TGI,[5],> 100 µM
same,GI50,[6],3.54 µM
same,TGI,[6],> 100 µM
same,GI50,[7],4.17 µM
same,TGI,[7],> 100 µM
same,GI50,[8],1.03 µM
same,TGI,[8],> 100 µM
same,GI50,[9],> 100 µM
same,TGI,[9],> 100 µM
same,GI50,[10],> 100 µM
same,TGI,[10],> 100 µM
same,GI50,[11],0.445 µM
same,TGI,[11],> 100 µM
same,GI50,[12],3.06 µM
same,TGI,[12],> 100 µM
same,GI50,[13],0.633 µM
same,TGI,[13],> 100 µM
same,GI50,[14],3.08 µM
same,TGI,[14],> 100 µM
same,GI50,[15],1.53 µM
same,TGI,[15],> 100 µM
same,GI50,[16],3.36 µM
same,TGI,[16],9.03 µM
same,GI50,[17],1.61 µM
same,TGI,[17],> 100 µM
same,GI50,[18],2.12 µM
same,TGI,[18],> 100 µM
same,GI50,[19],3 µM
same,TGI,[19],> 100 µM
same,GI50,[20],5.2 µM
same,TGI,[20],> 100 µM
same,GI50,[21],0.652 µM
same,TGI,[21],> 100 µM
same,GI50,[22],0.488 µM
same,TGI,[22],> 100 µM
same,GI50,[23],0.479 µM
same,TGI,[23],> 100 µM
same,GI50,[24],3.14 µM
same,TGI,[24],> 100 µM
same,GI50,[25],5.09 µM
same,TGI,[25],> 100 µM
same,GI50,[26],2.12 µM
same,TGI,[26],> 100 µM
same,GI50,[27],> 100 µM
same,TGI,[27],> 100 µM
same,GI50,[28],0.514 µM
same,TGI,[28],6.81 µM
same,GI50,[29],1.9 µM
same,TGI,[29],> 100 µM
same,GI50,[30],2.65 µM
same,TGI,[30],> 100 µM
same,GI50,[31],3.53 µM
same,TGI,[31],> 100 µM
same,GI50,[32],2.88 µM
same,TGI,[32],> 100 µM
same,GI50,[33],0.526 µM
same,TGI,[33],> 100 µM
same,GI50,[34],2.66 µM
same,TGI,[34],> 100 µM
same,GI50,[35],2.11 µM
same,TGI,[35],> 100 µM
CN1CCN(c2ccc(Nc3nc(NCCCNS(=O)(=O)c4ccc(C(F)(F)F)cc4)c4sccc4n3)cc2)CC1,GI50,[1],5.11 µM
same,TGI,[1],16.8 µM
same,GI50,[36],1.74 µM
same,TGI,[36],3.32 µM
same,GI50,[37],12.7 µM
same,TGI,[37],27.4 µM
same,GI50,[38],1.91 µM
same,TGI,[38],6.29 µM
same,GI50,[39],14.5 µM
same,TGI,[39],28 µM
same,GI50,[3],4.27 µM
same,TGI,[3],20.2 µM
same,GI50,[4],1.88 µM
same,TGI,[4],3.51 µM
same,GI50,[40],1.63 µM
same,TGI,[40],3.02 µM
same,GI50,[5],2.38 µM
same,TGI,[5],6.9 µM
same,GI50,[41],3.58 µM
same,TGI,[41],21.8 µM
same,GI50,[42],2.22 µM
same,TGI,[42],6.02 µM
same,GI50,[6],1.93 µM
same,TGI,[6],3.79 µM
same,GI50,[7],2.39 µM
same,TGI,[7],9.5 µM
same,GI50,[8],3.42 µM
same,TGI,[8],17 µM
same,GI50,[9],2.16 µM
same,TGI,[9],3.99 µM
same,GI50,[43],1.68 µM
same,TGI,[43],3.05 µM
same,GI50,[10],1.72 µM
same,TGI,[10],3.13 µM
same,GI50,[11],1.89 µM
same,TGI,[11],3.58 µM
same,GI50,[12],3.17 µM
same,TGI,[12],11.2 µM
same,GI50,[13],1.64 µM
same,TGI,[13],3.02 µM
same,GI50,[44],2.13 µM
same,TGI,[44],7.32 µM
same,GI50,[14],1.81 µM
same,TGI,[14],3.51 µM
same,GI50,[45],3.71 µM
same,TGI,[45],21.5 µM
same,GI50,[15],3.6 µM
same,TGI,[15],12.9 µM
same,GI50,[46],1.98 µM
same,TGI,[46],3.98 µM
same,GI50,[47],1.69 µM
same,TGI,[47],3.68 µM
same,GI50,[17],1.86 µM
same,TGI,[17],3.68 µM
same,GI50,[18],1.89 µM
same,TGI,[18],4.09 µM
same,GI50,[19],3.41 µM
same,TGI,[19],11.5 µM
same,GI50,[20],2.6 µM
same,TGI,[20],7.74 µM
same,GI50,[21],1.58 µM
same,TGI,[21],3.08 µM
same,GI50,[22],1.84 µM
same,TGI,[22],5.52 µM
same,GI50,[23],2.62 µM
same,TGI,[23],7.06 µM
same,GI50,[24],2.62 µM
same,TGI,[24],8.12 µM
same,GI50,[48],1.78 µM
same,TGI,[48],3.46 µM
same,GI50,[49],1.79 µM
same,TGI,[49],3.24 µM
same,GI50,[25],2.78 µM
same,TGI,[25],8.39 µM
same,GI50,[50],3.05 µM
same,TGI,[50],11.3 µM
same,GI50,[26],3.26 µM
same,TGI,[26],13.4 µM
same,GI50,[51],9.09 µM
same,TGI,[51],35 µM
same,GI50,[52],1.89 µM
same,TGI,[52],3.59 µM
same,GI50,[53],3.73 µM
same,TGI,[53],14.6 µM
same,GI50,[54],2.11 µM
same,TGI,[54],4.89 µM
same,GI50,[27],1.92 µM
same,TGI,[27],3.77 µM
same,GI50,[28],1.77 µM
same,TGI,[28],3.7 µM
same,GI50,[29],1.78 µM
same,TGI,[29],3.87 µM
same,GI50,[55],2.09 µM
same,TGI,[55],4.12 µM
same,GI50,[30],2.69 µM
same,TGI,[30],7.44 µM
same,GI50,[31],2.74 µM
same,TGI,[31],6.89 µM
same,GI50,[32],4.3 µM
same,TGI,[32],20.9 µM
same,GI50,[33],2.06 µM
same,TGI,[33],6.39 µM
same,GI50,[34],2.28 µM
same,TGI,[34],4.75 µM
same,GI50,[35],1.68 µM
same,TGI,[35],3.11 µM
same,GI50,[56],1.78 µM
same,TGI,[56],3.2 µM
